Test results reported in ChEMBL document CHEMBL3112462, “2-acylamino-5-nitro-1,3-thiazoles: preparation and in vitro bioevaluation against four neglected protozoan parasites” (Bioorg Med Chem, 2014).

Key:
Leishmania amazonensis [1] = assay: Antimicrobial activity against promastigote stage of Leishmania amazonensis IFLA/BR/67/PH-8 clinical isolate after 72 hrs by Neubauer chamber analysis; type: functional, organism-based; details: IFLA/BR/67/PH-8, 72 h
Trichomonas vaginalis [2] = assay: Antimicrobial activity against Trichomonas vaginalis GT3 incubated for 48 hrs followed by compound washout measured after 48 hrs; type: functional, organism-based; details: GT3, 48 h
[3] = Cytotoxicity against African green monkey Vero cells assessed as cell viability after 48 hrs by SRB assay; type: cell-based; details: chlorocebus sabaeus
Trypanosoma cruzi [4] = assay: Antimicrobial activity against epimastigote stage of Trypanosoma cruzi MHOM/MX/1994/Ninoa clinical isolate after 72 hrs by Neubauer chamber analysis; type: functional, organism-based
Giardia intestinalis [5] = assay: Antimicrobial activity against Giardia intestinalis IMSS:0696:1 incubated for 48 hrs followed by compound washout measured after 48 hrs; type: functional, organism-based; details: Giardia duodenalis, IMSS:0696:1, 48 h
Trichomonas vaginalis [6] = assay: Ratio of metronidazole IC50 to compound IC50 for Trichomonas vaginalis GT3; type: functional
Giardia intestinalis [7] = assay: Ratio of metronidazole IC50 to compound IC50 for Giardia intestinalis IMSS:0696:1; type: functional, Giardia duodenalis
Trypanosoma cruzi [8] = assay: Ratio of benznidazole IC50 to compound IC50 for epimastigote stage of Trypanosoma cruzi MHOM/MX/1994/Ninoa clinical isolate; type: functional
Leishmania amazonensis [9] = assay: Ratio of pentamidine IC50 to compound IC50 for promastigote stage of Leishmania amazonensis IFLA/BR/67/PH-8 clinical isolate; type: functional
[10] = Selectivity index, ratio of CC50 for African green monkey Vero cells to IC50 for Trichomonas vaginalis GT3; type: functional
[11] = Selectivity index, ratio of CC50 for African green monkey Vero cells to IC50 for Giardia intestinalis IMSS:0696:1; type: functional

Cc1ncc([N+](=O)[O-])n1CCO [METRONIDAZOLE]
IC50 (Leishmania amazonensis [1]): > 50 µM | IC50 (Trichomonas vaginalis [2]; read-out: pIC50 (converted)): 0.316 µM | CC50 at 48 h [3]: 387 µM | IC50 (Trypanosoma cruzi [4]): > 50 µM

CC(=O)Nc1ncc([N+](=O)[O-])s1 [NITHIAMIDE]
IC50 (Leishmania amazonensis [1]): > 50 µM | IC50 (Trichomonas vaginalis [2]; read-out: IC50): 0.022 µM | IC50 (Trichomonas vaginalis [2]; read-out: pIC50 (converted)): 0.0251 µM | IC50 (Giardia intestinalis [5]; read-out: IC50): 0.49 µM | IC50 (Giardia intestinalis [5]; read-out: pIC50 (converted)): 0.501 µM | Ratio IC50 (Trichomonas vaginalis [6]): 13 | Ratio IC50 (Giardia intestinalis [7]): 11 | CC50 at 48 h [3]: > 1000 µM | IC50 (Trypanosoma cruzi [4]): > 50 µM

CCCCCCCCCCCCCCCC(=O)Nc1ncc([N+](=O)[O-])s1
IC50 (Leishmania amazonensis [1]): > 50 µM | IC50 (Trichomonas vaginalis [2]; read-out: IC50): 2.58 µM | IC50 (Trichomonas vaginalis [2]; read-out: pIC50 (converted)): 3.16 µM | IC50 (Giardia intestinalis [5]; read-out: IC50): 1.63 µM | IC50 (Giardia intestinalis [5]; read-out: pIC50 (converted)): 1.66 µM | CC50 at 48 h [3]: > 1000 µM | IC50 (Trypanosoma cruzi [4]): > 50 µM

Nc1ncc([N+](=O)[O-])s1
IC50 (Leishmania amazonensis [1]): > 50 µM | IC50 (Trichomonas vaginalis [2]; read-out: IC50): 52.9 µM | IC50 (Trichomonas vaginalis [2]; read-out: pIC50 (converted)): 63.1 µM | IC50 (Giardia intestinalis [5]; read-out: IC50): 29.6 µM | IC50 (Giardia intestinalis [5]; read-out: pIC50 (converted)): 27.5 µM | CC50 at 48 h [3]: 441 µM | IC50 (Trypanosoma cruzi [4]): > 50 µM

COc1ccc(NC(=O)Nc2ncc([N+](=O)[O-])s2)cc1
IC50 (Leishmania amazonensis [1]): 32.2 µM | IC50 (Trichomonas vaginalis [2]; read-out: IC50): 1.3 µM | IC50 (Trichomonas vaginalis [2]; read-out: pIC50 (converted)): 1.58 µM | IC50 (Giardia intestinalis [5]; read-out: IC50): 29.1 µM | IC50 (Giardia intestinalis [5]; read-out: pIC50 (converted)): 29.5 µM | IC50 (Trypanosoma cruzi [4]): > 50 µM

CC(=O)Oc1ccccc1C(=O)Nc1ncc([N+](=O)[O-])s1 [NITAZOXANIDE]
IC50 (Leishmania amazonensis [1]): 7.23 µM | IC50 (Trichomonas vaginalis [2]; read-out: pIC50 (converted)): 0.0794 µM | IC50 (Giardia intestinalis [5]; read-out: pIC50 (converted)): 1.23 µM | Ratio IC50 (Trypanosoma cruzi [8]): 2 | Ratio IC50 (Leishmania amazonensis [9]): 2 | CC50 at 48 h [3]: 833 µM

O=C(Nc1ccc([N+](=O)[O-])cc1)Nc1ncc([N+](=O)[O-])s1
IC50 (Leishmania amazonensis [1]): > 50 µM | IC50 (Trichomonas vaginalis [2]; read-out: IC50): 0.958 µM | IC50 (Trichomonas vaginalis [2]; read-out: pIC50 (converted)): 1 µM | IC50 (Giardia intestinalis [5]; read-out: IC50): 15.3 µM | IC50 (Giardia intestinalis [5]; read-out: pIC50 (converted)): 15.5 µM | IC50 (Trypanosoma cruzi [4]): > 50 µM

O=C(Nc1ccc(F)cc1)Nc1ncc([N+](=O)[O-])s1
IC50 (Leishmania amazonensis [1]): > 50 µM | IC50 (Trichomonas vaginalis [2]; read-out: IC50): 1.23 µM | IC50 (Trichomonas vaginalis [2]; read-out: pIC50 (converted)): 1.26 µM | IC50 (Giardia intestinalis [5]; read-out: IC50): 7.83 µM | IC50 (Giardia intestinalis [5]; read-out: pIC50 (converted)): 7.94 µM | CC50 at 48 h [3]: > 1000 µM | IC50 (Trypanosoma cruzi [4]): > 50 µM

CCCCC(=O)Nc1ncc([N+](=O)[O-])s1
IC50 (Leishmania amazonensis [1]): > 50 µM | IC50 (Trichomonas vaginalis [2]; read-out: IC50): 0.305 µM | IC50 (Trichomonas vaginalis [2]; read-out: pIC50 (converted)): 0.316 µM | IC50 (Giardia intestinalis [5]; read-out: IC50): 0.398 µM | IC50 (Giardia intestinalis [5]; read-out: pIC50 (converted)): 0.398 µM | Ratio IC50 (Giardia intestinalis [7]): 11 | CC50 at 48 h [3]: > 1000 µM | IC50 (Trypanosoma cruzi [4]): > 50 µM

O=C(Cn1ccnc1[N+](=O)[O-])NCc1ccccc1 [BENZNIDAZOLE]
IC50 (Leishmania amazonensis [1]): > 50 µM | CC50 at 48 h [3]: 14 µM

CCOc1ccc(NC(=O)Nc2ncc([N+](=O)[O-])s2)cc1
IC50 (Leishmania amazonensis [1]): > 50 µM | IC50 (Trichomonas vaginalis [2]; read-out: IC50): 0.282 µM | IC50 (Trichomonas vaginalis [2]; read-out: pIC50 (converted)): 0.316 µM | IC50 (Giardia intestinalis [5]; read-out: IC50): 3.75 µM | IC50 (Giardia intestinalis [5]; read-out: pIC50 (converted)): 3.8 µM | CC50 at 48 h [3]: > 1000 µM | IC50 (Trypanosoma cruzi [4]): > 50 µM

O=C(Nc1ncc([N+](=O)[O-])s1)NC1CCCCC1
IC50 (Leishmania amazonensis [1]): > 50 µM | IC50 (Trichomonas vaginalis [2]; read-out: IC50): 1.65 µM | IC50 (Trichomonas vaginalis [2]; read-out: pIC50 (converted)): 2 µM | IC50 (Giardia intestinalis [5]; read-out: IC50): 0.359 µM | IC50 (Giardia intestinalis [5]; read-out: pIC50 (converted)): 0.363 µM | Ratio IC50 (Giardia intestinalis [7]): 11 | CC50 at 48 h [3]: > 1000 µM | IC50 (Trypanosoma cruzi [4]): > 50 µM

O=C(Nc1ccccc1)Nc1ncc([N+](=O)[O-])s1
IC50 (Leishmania amazonensis [1]): 38.5 µM | IC50 (Giardia intestinalis [5]; read-out: IC50): 2.57 µM | IC50 (Giardia intestinalis [5]; read-out: pIC50 (converted)): 2.57 µM | CC50 at 48 h [3]: > 1000 µM | IC50 (Trypanosoma cruzi [4]): > 50 µM

COC(=O)Nc1ncc([N+](=O)[O-])s1
IC50 (Leishmania amazonensis [1]): > 50 µM | IC50 (Trichomonas vaginalis [2]; read-out: IC50): 0.081 µM | IC50 (Trichomonas vaginalis [2]; read-out: pIC50 (converted)): 0.1 µM | IC50 (Giardia intestinalis [5]; read-out: IC50): 0.01 µM | IC50 (Giardia intestinalis [5]; read-out: pIC50 (converted)): 0.01 µM | Ratio CC50/IC50 [10]: 30407 | Ratio CC50/IC50 [11]: 246300 | Ratio IC50 (Trichomonas vaginalis [6]): 4 | Ratio IC50 (Giardia intestinalis [7]): 536 | CC50 at 48 h [3]: 2460 µM | IC50 (Trypanosoma cruzi [4]): > 50 µM

CCOC(=O)C(=O)Nc1ncc([N+](=O)[O-])s1
IC50 (Leishmania amazonensis [1]): > 50 µM | IC50 (Trichomonas vaginalis [2]; read-out: IC50): 0.01 µM | IC50 (Trichomonas vaginalis [2]; read-out: pIC50 (converted)): 0.01 µM | IC50 (Giardia intestinalis [5]; read-out: IC50): 6.41 µM | IC50 (Giardia intestinalis [5]; read-out: pIC50 (converted)): 6.46 µM | Ratio CC50/IC50 [10]: 141500 | Ratio CC50/IC50 [11]: 220 | Ratio IC50 (Trichomonas vaginalis [6]): 29 | CC50 at 48 h [3]: 1420 µM | IC50 (Trypanosoma cruzi [4]): > 50 µM

CCCCOc1ccc(NC(=O)Nc2ncc([N+](=O)[O-])s2)cc1
IC50 (Leishmania amazonensis [1]): > 50 µM | IC50 (Trichomonas vaginalis [2]; read-out: IC50): 0.387 µM | IC50 (Trichomonas vaginalis [2]; read-out: pIC50 (converted)): 0.398 µM | IC50 (Giardia intestinalis [5]; read-out: IC50): 1.8 µM | IC50 (Giardia intestinalis [5]; read-out: pIC50 (converted)): 1.82 µM | CC50 at 48 h [3]: 58 µM | IC50 (Trypanosoma cruzi [4]): > 50 µM

N=C(N)c1ccc(OCCCCCOc2ccc(C(=N)N)cc2)cc1 [PENTAMIDINE]
IC50 (Leishmania amazonensis [1]): 14.3 µM | CC50 at 48 h [3]: 47 µM | IC50 (Trypanosoma cruzi [4]): > 50 µM

O=C(Nc1ccc(Cl)cc1)Nc1ncc([N+](=O)[O-])s1
IC50 (Leishmania amazonensis [1]): 37.2 µM | IC50 (Trichomonas vaginalis [2]; read-out: IC50): 1.03 µM | IC50 (Trichomonas vaginalis [2]; read-out: pIC50 (converted)): 1.26 µM | IC50 (Giardia intestinalis [5]; read-out: IC50): 0.577 µM | IC50 (Giardia intestinalis [5]; read-out: pIC50 (converted)): 0.589 µM | Ratio IC50 (Giardia intestinalis [7]): 11 | CC50 at 48 h [3]: > 1000 µM | IC50 (Trypanosoma cruzi [4]): > 50 µM
